We go through one compound from article PMC6934184, “Selective DNA-PKcs inhibition extends the therapeutic index of localized radiotherapy and chemotherapy” (The Journal of Clinical Investigation, 2019).

In this experiment the target is T1, TEK (TIE2) R849W (Homo sapiens, UniProt Q02763, R849W).
T1 construct: purchased Thermo Fisher Scientific (Life Technologies) SelectScreen
As to the kind of experiment: SelectScreen LanthaScreen. The note with it: read-out: % displacement. Format: binding. The gist of the method: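 Percent values come from Thermo SelectScreen profiling of NU5455, combining activity and binding assays. CSF1R was run in Z'LYTE format at Km app ATP, and CAMK1 in Adapta format with ATP listed at 10.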

The structures appear in SMILES notation.

T1 sequence (Q02763 23-1124 R849W): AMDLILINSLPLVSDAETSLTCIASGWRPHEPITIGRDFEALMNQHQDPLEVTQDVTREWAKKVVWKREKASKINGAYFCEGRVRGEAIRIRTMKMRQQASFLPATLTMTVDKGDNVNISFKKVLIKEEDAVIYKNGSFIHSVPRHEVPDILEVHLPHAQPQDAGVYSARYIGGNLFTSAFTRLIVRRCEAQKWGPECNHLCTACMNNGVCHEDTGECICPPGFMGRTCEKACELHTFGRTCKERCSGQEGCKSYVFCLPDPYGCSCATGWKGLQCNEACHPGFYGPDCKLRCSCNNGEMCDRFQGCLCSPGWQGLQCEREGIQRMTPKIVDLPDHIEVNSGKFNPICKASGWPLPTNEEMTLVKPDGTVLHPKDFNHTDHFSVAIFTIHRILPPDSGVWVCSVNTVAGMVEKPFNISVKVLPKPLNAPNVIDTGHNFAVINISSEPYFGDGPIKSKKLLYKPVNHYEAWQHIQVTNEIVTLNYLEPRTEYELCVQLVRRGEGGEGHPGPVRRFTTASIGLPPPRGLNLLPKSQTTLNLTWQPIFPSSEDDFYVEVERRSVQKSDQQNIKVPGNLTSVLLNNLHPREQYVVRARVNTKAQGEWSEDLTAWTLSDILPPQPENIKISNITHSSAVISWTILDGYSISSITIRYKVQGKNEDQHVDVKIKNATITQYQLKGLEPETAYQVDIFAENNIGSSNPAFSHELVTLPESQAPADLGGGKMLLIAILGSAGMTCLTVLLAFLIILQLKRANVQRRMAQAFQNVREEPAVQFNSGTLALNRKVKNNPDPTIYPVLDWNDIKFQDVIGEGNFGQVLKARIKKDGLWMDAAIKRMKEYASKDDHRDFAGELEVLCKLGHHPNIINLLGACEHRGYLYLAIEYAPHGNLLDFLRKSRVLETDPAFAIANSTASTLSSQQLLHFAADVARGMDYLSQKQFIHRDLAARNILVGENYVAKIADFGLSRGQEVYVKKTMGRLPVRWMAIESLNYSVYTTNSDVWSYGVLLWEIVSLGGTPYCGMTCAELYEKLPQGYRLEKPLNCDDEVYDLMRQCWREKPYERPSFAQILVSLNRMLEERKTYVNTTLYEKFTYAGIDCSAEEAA

As for `CN(C(=O)CN1CCOCC1)c1ccc2sc3c(-c4cccc5c(=O)cc(N6CC7CCC(C6)O7)oc45)cccc3c2c1` [NU5455], the inhibition at 1 µM was -3.3%.
